Laboratory results taken from patent US6632844B1, “Methods and compositions for preserving glucose level in blood specimens” (Washington University, priority 2000, dated 2003).
Read-outs that look alike come from different tables or passages of the source.

Experiments:
[1] = tested on: heparinized whole blood; conditions: for ability to preserve specimen glucose (in words): 10 mmol/L, 8 hours; for Decrease (glucose loss) / Glucose at 8 hours / Glucose at 0 Hours: agent at 10 mmol/L; for Decrease (glucose loss): 0 to 8 hours, no additions 41%; for Glucose at 8 hours: 8 hours at room temperature; for Glucose at 8 hours / Glucose at 0 Hours: mean(SD); for IC50: read-out: concentration that reduced glycolytic loss by half, 8 hours incubation at room temperature
Text: Whole blood specimens collected in tubes containing sodium heparin as anticoagulant were obtained from healthy adult volunteers or from adult diabetic patients visiting an outpatient clinic, after obtaining informed consent. Specimens were employed for experimentation within one hour of collection. In a few experiments, whole blood heparinized specimens arriving at the clinical laboratory for analysis for glucose and other common analytes were mixed, and aliquots removed for experimental purposes. These studies were conducted in accordance with a protocol approved by the Human Studies Committee of Washington University.
Aliquots of heparinized whole blood (0.96 mL) were pipetted into microfuge tubes containing 0.040 mL of saline or anti-glycolytic agent in saline. Anti-glycolytic agents were prepared as 250 mmol/L stock solutions within one hour of use. At various times plasma was prepared from incubations by centrifugation at 8000×G for two minutes; plasma was decanted to 12×75 mm tubes and stored frozen until analysis. All incubations of whole blood were conducted at room temperature (23°) on a rotating table shaker, which kept the cells in dispersed suspension. d,1-glyceraldehyde, methylgloxal, d-glyceraldehyde, glycolaldehyde and dihydroxyacetone were obtained from Sigma Chem Co. (St. Louis, Mo.). 1-glyceraldehyde was obtained from Fisher Scientific (Pittsburgh, Pa.).
Glucose analyses were routinely performed on a Cobas-MIRA analyzer (Roche Diagnostic Systems, Montclair, N.J.), employing reagents based on glucose oxidase, manufactured by Sigma Diagnostics (St. Louis, Mo.). In some experiments, glucose and many other common laboratory analyses were performed on a Vitros 250 Analyzer (Ortho-Clinical Diagnostics, Rochester, N.Y.), a Hitachi 747 Analyzer (Boehringer-Mannheim Corp., Indianapolis, Ind.) and a RxL Analyzer (Dade Behring, Inc. Newark, Del.).
Whole heparinized blood was incubated for 0-8 hours in the presence of 10 mmol/L d,1-GA, and the glycolytic loss of glucose followed over time (FIG. 1).
Whole heparinized blood was incubated for 8 hours in the presence of 0-10 mmol/L d,1-GA (FIG. 2).
Several compounds related biochemically or structurally to d,1-GA were tested for ability to preserve specimen glucose; incubations without inhibitor and with d,1-GA were included for comparison (Table I). All compounds were tested at a final concentration of 10 mmol/L, and incubations were conducted at 0 hours and 8 hours for each compound. […] To test this possibility, an experiment varying the concentration of 1-GA was performed in analogy with the earlier experiment varying the d,1-GA concentration (see above).

[2] = tested on: patient whole blood specimens; assay: Efficacy of d,1-GA in patient specimens: initial glucose vs glucose after 8 hours incubation; format: cell-based, human; conditions: 10 mmol/L d,1-GA
Text: Results are presented by plotting initial glucose concentration against glucose concentrations either in the presence or absence of d,1-GA (FIG. 3).

[3] = tested on: erythrocyte potassium homeostasis; assay: Effect on erythrocyte potassium homeostasis (plasma potassium in whole blood incubations); format: cell-based, human; conditions: 10 mmol/L d,1-GA; room temperature; 4.0±0 mmol/L at 0 hours
Description: 1-glyceraldehyde was obtained from Fisher Scientific (Pittsburgh, Pa.).
The time course of potassium concentration changes was followed for 8 hours in whole blood incubations under three conditions; 1) incubation at room temperature (without additions), 2) incubation at room temperature with 10 mmol/L d,1-GA, and 3) incubation at 4° C. (without additions). In room temperature incubations without additive, potassium decreased modestly from 4.0±0 mmol/L at 0 hours to 3.5±0.1 mmol/L at 8 hours. Incubation for 8 hours in the presence of d,1-GA caused an increase of similar magnitude (to 4.5±0 mmol/L). In contrast, incubation at 4° C., which has been advocated as an effective way to prevent glucose loss for short periods (Lin et al., Clin. Chem., 22:2031-3 (1976)), caused an increase to 6.0±0.1 mmol/L.

SMILES | hemolysis [1] | elimination of glycolytic loss (in words) ([1]; 2.5 mmol/L 1-GA, 8 hour incubation, data not shown) | ability to preserve specimen glucose (in words) [1] | Decrease (glucose loss) [1] [%] | Glucose at 8 hours [1] | Glucose at 0 Hours [1] | IC50 [1] [µM] | residual glucose at 8 hours ([1]; 5 mmol/L d,1-GA, start 4.8±0.1 mmol/L, FIG. 2) [mmol/L] | loss of glucose at 8 hours ([1]; 10 mmol/L d,1-GA, FIG. 1, without additive 38% lost) [%] | hemolysis ([1]; whole blood incubation with additive) | reduction of the extent of glucose loss compared with absence of d,1-GA [2] | plasma potassium at 8 hours [3] [mmol/L]
O=C[C@@H](O)CO [1-GA, 1-glyceraldehyde] | does not cause hemolysis | nearly completely effective | completely prevented | 0 | 4.8(0.1) mmol/L | 4.8(0.1) mmol/L | ~650 | – | – | – | – | –
O=C(O)C(O)CO (stereo not shown) [Glyceric Acid, reference compound] | – | – | – | 42 | 2.7(0.2) mmol/L | 4.7(0.1) mmol/L | – | – | – | – | – | –
O=CCO [Glycolaldehyde, reference compound] | – | – | – | 52 | 2.3(0.1) mmol/L | 4.8(0.1) mmol/L | – | – | – | – | – | –
O=C(CO)[C@@H](O)[C@H](O)[C@@H](O)CO [L-Sorbose, reference compound] | – | – | not effective | 38 | 3.1(0) mmol/L | 5.0(0.1) mmol/L | – | – | – | – | – | –
CC(=O)C=O [Methylglyoxal, reference compound] | – | – | ineffective | 43 | 2.6(0.2) mmol/L | 4.5(1.0) mmol/L | – | – | – | – | – | –
O=CC(O)CO (stereo not shown) [d,1-GA, d,1-glyceraldehyde] | – | – | – | 0 | 4.8(0.1) mmol/L | 4.7(0.2) mmol/L | ~900 | 4.6 ± 0.3 | 2 | did not promote visible hemolysis | more than 7 fold | 4.5 ± 0
O=C[C@H](O)CO [d-GA, d-glyceraldehyde] | – | – | only partly effective | 17 | 3.9(0.1) mmol/L | 4.7(0.1) mmol/L | – | – | – | – | – | –
